Source: publication PMC11428279, “Exploring Structure–Activity Relationships and Modes of Action of Laterocidine” (ACS Central Science, 2024)
Like-named read-outs stand apart in the source and are kept apart here. Bridge positions count the residues as written; N and C are the ends. Square brackets hold non-standard residues; d marks the D form. Peptide text beside a SMILES is read from it. * marks the point of attachment. Pen = CC(C)(S)[C@H](N)C(=O)O; dOrn = NCCC[C@@H](N)C(=O)O; Nonanoyl = CCCCCCCCC(=O)*; X2 = O=C(c1ccc(Cl)cc1Cl)*; Orn = NCCC[C@H](N)C(=O)O; Dap = NC[C@H](N)C(=O)O

Legend:
[1] = test system: Gram-negative strains of P. aeruginosa, A. baumannii, K. pneumoniae, and E. cloacae; format: cell-based
Experimental: (§1) MICs for laterocidine and its various analogues were determined by broth microdilution[49] for the following polymyxin-susceptible ATCC and clinical isolates: P. aeruginosa FADDI-PA022, FADDI-PA001, FADDI-PA025, FADDI-PA070, FADDI-PA060; A. baumannii FADDI-AB134, FADDI-AB034, FADDI-AB030, FADDI-AB174, FADDI-AB241; K. pneumoniae FADDI-KP032, FADDI-KP022, BM1, FADDI-KP065, FADDI-KP064, FADDI-KP003; and E. cloacae FADDI-EC001, FADDI-EC003, and FADDI-EC006. Experiments were performed with cation-adjusted Mueller–Hinton broth (CAMHB) in 96-well polystyrene microtiter plates. Wells were inoculated with 100 μL of bacterial suspension prepared in CAMHB (containing ∼10^6 CFU/mL) and 100 μL of CAMHB containing increasing concentrations of polymyxins (0–32 μg/mL). MIC measurements were performed in duplicate, with the MIC being the lowest concentration at which visible growth was inhibited following 18–20 h of incubation at 37 °C. Bacterial killing kinetics was investigated over 24 h as described previously.[50]

A. baumannii = format: cell-based
Experimental: as §1

[2] = compared with native laterocidine

| MICs against P. aeruginosa and A. baumannii (range) [1] [µg/mL] | fold increase in MIC (loss of activity) against all strains / all species [1, 2] | SMILES | also measured |
| --- | --- | --- | --- |
| – | – | CC[C@H](C)[C@@H]1NC(=O)[C@@H](NC(=O)[C@H](Cc2c[nH]c3ccccc23)NC(=O)[C@@H](CCCN)NC(=O)CNC(=O)[C@H](CCCN)NC(=O)[C@@H](CCCN)NC(=O)[C@@H](Cc2c[nH]c3ccccc23)NC(=O)[C@@H](Cc2ccc(O)cc2)NC(=O)[C@H](N)CO)[C@@H](C)OC(=O)CNC(=O)CNC(=O)[C@H](CC(N)=O)NC1=O [Peptide 14] (H-[dS][dY][dW][dOrn][Orn]G[dOrn]WTINGG; ester 9-C) | MICs against all tested strains (range) [1]: > 32 µg/mL |
| 2 to 16 | no more than 1 fold | CCCCCCCCC(=O)N[C@H](CO)C(=O)N[C@H](Cc1ccc(O)cc1)C(=O)N[C@H](Cc1c[nH]c2ccccc12)C(=O)N[C@H](CCCN)C(=O)N[C@@H](CCCN)C(=O)NCC(=O)N[C@H](CCCN)C(=O)N[C@@H](Cc1c[nH]c2ccccc12)C(=O)N[C@@H]1C(=O)N[C@@H]([C@@H](C)CC)C(=O)N[C@@H](C)C(=O)NCC(=O)NCC(=O)O[C@@H]1C [Peptide 26] (Nonanoyl-[dS][dY][dW][dOrn][Orn]G[dOrn]WTIAGG; ester 9-C) | – |
| – | 2–4 fold | CCCCCCCCC(=O)N[C@H](CO)C(=O)N[C@H](Cc1ccc(O)cc1)C(=O)N[C@H](Cc1c[nH]c2ccccc12)C(=O)N[C@H](CCCN)C(=O)N[C@@H](CCCN)C(=O)NCC(=O)N[C@H](C)C(=O)N[C@@H](Cc1c[nH]c2ccccc12)C(=O)N[C@@H]1C(=O)N[C@@H]([C@@H](C)CC)C(=O)N[C@@H](CC(N)=O)C(=O)NCC(=O)NCC(=O)O[C@@H]1C [Peptide 29] (Nonanoyl-[dS][dY][dW][dOrn][Orn]G[dA]WTINGG; ester 9-C) | – |
| 2 to 16 | no more than 1 fold | CCCCCCCCC(=O)N[C@H](CO)C(=O)N[C@H](Cc1ccc(O)cc1)C(=O)N[C@H](Cc1c[nH]c2ccccc12)C(=O)N[C@H](CCCN)C(=O)N[C@@H](CCCN)C(=O)NCC(=O)N[C@H](CCCN)C(=O)N[C@@H](Cc1c[nH]c2ccccc12)C(=O)N[C@@H]1C(=O)N[C@@H]([C@@H](C)CC)C(=O)N[C@@H](CC(N)=O)C(=O)N[C@@H](C)C(=O)NCC(=O)O[C@@H]1C [Peptide 25] (Nonanoyl-[dS][dY][dW][dOrn][Orn]G[dOrn]WTINAG; ester 9-C) | – |
| > 32 | – | CCCCCCCCC(=O)N[C@H](CO)C(=O)N[C@H](Cc1ccc(O)cc1)C(=O)N[C@H](Cc1c[nH]c2ccccc12)C(=O)N[C@H](CCCN)C(=O)N[C@@H](CCCN)C(=O)NCC(=O)N[C@H](CCCN)C(=O)N[C@@H](Cc1c[nH]c2ccccc12)C(=O)N[C@@H]1C(=O)N[C@@H]([C@@H](C)CC)C(=O)N[C@@H](CC(N)=O)C(=O)NCC(=O)NCC(=O)N[C@@H]1C [Peptide 17] | – |
| – | – | CC[C@H](C)[C@@H]1NC(=O)[C@@H](N)[C@@H](C)OC(=O)CNC(=O)CNC(=O)[C@H](CC(N)=O)NC1=O [Peptide 13] (HELM PEPTIDE1{[C[C@@H](O[*:3])[C@H](N)C(=O)[*:2]].I.N.G.G}$PEPTIDE1,PEPTIDE1,1:R3-5:R2$$$V2.0) | MICs against all tested strains (range) [1]: > 32 µg/mL |
| – | 2–8 fold | CCCCCCCCC(=O)N[C@H](CO)C(=O)N[C@H](Cc1ccc(O)cc1)C(=O)N[C@H](Cc1c[nH]c2ccccc12)C(=O)N[C@H](CCCN)C(=O)N[C@@H](C)C(=O)NCC(=O)N[C@H](CCCN)C(=O)N[C@@H](Cc1c[nH]c2ccccc12)C(=O)N[C@@H]1C(=O)N[C@@H]([C@@H](C)CC)C(=O)N[C@@H](CC(N)=O)C(=O)NCC(=O)NCC(=O)O[C@@H]1C [Peptide 31] (Nonanoyl-[dS][dY][dW][dOrn]AG[dOrn]WTINGG; ester 9-C) | – |
| 8 to 32 | – | CCCCCCCCC(=O)N[C@H](CO)C(=O)N[C@H](Cc1ccc(O)cc1)C(=O)N[C@H](Cc1c[nH]c2ccccc12)C(=O)N[C@H](CCCN)C(=O)N[C@@H](CCCN)C(=O)NCC(=O)N[C@H](CCCN)C(=O)N[C@@H](Cc1c[nH]c2ccccc12)C(=O)N[C@H](C(=O)N[C@H](C(=O)N[C@@H](CC(N)=O)C(=O)NCC(=O)NCC(=O)O)[C@@H](C)CC)[C@@H](C)O [Peptide 19] (Nonanoyl-[dS][dY][dW][dOrn][Orn]G[dOrn]WTINGG-OH) | MICs against K. pneumoniae and E. cloacae (range) [1]: 4 to 32 µg/mL; fold increase in MIC for K. pneumoniae and E. cloacae [1, 2]: 2–4 fold; fold increase in MIC for P. aeruginosa and A. baumannii [1, 2]: 2–8 fold |
| – | – | CCCCCCCCC(=O)N[C@H](CO)C(=O)N[C@H](Cc1ccc(O)cc1)C(=O)N[C@H](Cc1c[nH]c2ccccc12)C(=O)N[C@H](CCCN)C(=O)N[C@@H](CCCN)C(=O)NCC(=O)N[C@H](CCCN)C(=O)N[C@@H](Cc1c[nH]c2ccccc12)C(=O)N[C@H](C(=O)N[C@H](C(=O)N[C@@H](CC(N)=O)C(=O)NCC(=O)NCC(N)=O)[C@@H](C)CC)[C@@H](C)O [Peptide 20] (Nonanoyl-[dS][dY][dW][dOrn][Orn]G[dOrn]WTINGG-NH2) | MICs against P. aeruginosa, K. pneumoniae, and E. cloacae (range) [1]: 4 to 32 µg/mL; fold increase in MIC against P. aeruginosa, K. pneumoniae, and E. cloacae [1, 2]: 2–4 fold |
| > 32 | – | CCCCCCCCC(=O)N[C@H](CO)C(=O)N[C@H](Cc1ccc(O)cc1)C(=O)N[C@H](Cc1c[nH]c2ccccc12)C(=O)N[C@H](CCCN)C(=O)N[C@@H](CCCN)C(=O)NCC(=O)N[C@H](CCCN)C(=O)N[C@@H](Cc1c[nH]c2ccccc12)C(=O)N[C@H]1CNC(=O)CNC(=O)CNC(=O)[C@H](CC(N)=O)NC(=O)[C@H]([C@@H](C)CC)NC1=O [Peptide 16] (Nonanoyl-[dS][dY][dW][dOrn][Orn]G[dOrn]W[Dap]INGG; lactam 9-C) | – |
| – | – | CCCCCCCCC(=O)N[C@H](CO)C(=O)N[C@H](Cc1ccc(O)cc1)C(=O)N[C@H](C)C(=O)N[C@H](CCCN)C(=O)N[C@@H](CCCN)C(=O)NCC(=O)N[C@H](CCCN)C(=O)N[C@@H](Cc1c[nH]c2ccccc12)C(=O)N[C@@H]1C(=O)N[C@@H]([C@@H](C)CC)C(=O)N[C@@H](CC(N)=O)C(=O)NCC(=O)NCC(=O)O[C@@H]1C [Peptide 33] (Nonanoyl-[dS][dY][dA][dOrn][Orn]G[dOrn]WTINGG; ester 9-C) | MICs against A. baumannii (range over strains) (A. baumannii; summary of Tables 1 and 2): > 32 µg/mL |
| – | – | CC[C@H](C)[C@@H]1NC(=O)[C@@H](NC(=O)[C@H](Cc2c[nH]c3ccccc23)NC(=O)[C@@H](CCCN)NC(=O)CNC(=O)[C@H](CCCN)NC(=O)[C@@H](CCCN)NC(=O)[C@@H](Cc2c[nH]c3ccccc23)NC(=O)[C@@H](Cc2ccc(O)cc2)NC(=O)[C@@H](CO)NC(=O)c2ccc(Cl)cc2Cl)[C@@H](C)OC(=O)CNC(=O)CNC(=O)[C@H](CC(N)=O)NC1=O [Peptide 12] (X2-[dS][dY][dW][dOrn][Orn]G[dOrn]WTINGG; ester 9-C) | fold increase in MIC (loss of activity) against A. baumannii (A. baumannii; [2]): 4–8 fold |
| – | – | CCCCCCCCC(=O)N[C@H](CO)C(=O)N[C@H](C)C(=O)N[C@H](Cc1c[nH]c2ccccc12)C(=O)N[C@H](CCCN)C(=O)N[C@@H](CCCN)C(=O)NCC(=O)N[C@H](CCCN)C(=O)N[C@@H](Cc1c[nH]c2ccccc12)C(=O)N[C@@H]1C(=O)N[C@@H]([C@@H](C)CC)C(=O)N[C@@H](CC(N)=O)C(=O)NCC(=O)NCC(=O)O[C@@H]1C [Peptide 34] (Nonanoyl-[dS][dA][dW][dOrn][Orn]G[dOrn]WTINGG; ester 9-C) | MICs against A. baumannii (range over strains) (A. baumannii): ≥ 32 µg/mL |
| – | 2–8 fold | CCCCCCCCC(=O)N[C@H](CO)C(=O)N[C@H](Cc1ccc(O)cc1)C(=O)N[C@H](Cc1c[nH]c2ccccc12)C(=O)N[C@H](CCCN)C(=O)N[C@@H](CCCN)C(=O)NCC(=O)N[C@H](CCCN)C(=O)N[C@@H](Cc1c[nH]c2ccccc12)C(=O)N[C@@H]1C(=O)N[C@@H]([C@@H](C)CC)C(=O)N[C@@H](CC(N)=O)C(=O)NCC(=O)N[C@H](C(=O)O)CSSC1(C)C [Peptide 18] (Nonanoyl-[dS][dY][dW][dOrn][Orn]G[dOrn]W[Pen]INGC-OH; disulfide 9-13; C-terminus assumed) | – |
| – | 2–8 fold | CCCCCCCCC(=O)N[C@H](CO)C(=O)N[C@H](Cc1ccc(O)cc1)C(=O)N[C@H](Cc1c[nH]c2ccccc12)C(=O)N[C@H](C)C(=O)N[C@@H](CCCN)C(=O)NCC(=O)N[C@H](CCCN)C(=O)N[C@@H](Cc1c[nH]c2ccccc12)C(=O)N[C@@H]1C(=O)N[C@@H]([C@@H](C)CC)C(=O)N[C@@H](CC(N)=O)C(=O)NCC(=O)NCC(=O)O[C@@H]1C [Peptide 32] (Nonanoyl-[dS][dY][dW][dA][Orn]G[dOrn]WTINGG; ester 9-C) | – |
| – | – | CCCCCCCCC(=O)N[C@H](CO)C(=O)N[C@H](Cc1ccc(O)cc1)C(=O)N[C@H](Cc1c[nH]c2ccccc12)C(=O)N[C@H](CCCN)C(=O)N[C@@H](CCCN)C(=O)NCC(=O)N[C@H](CCCN)C(=O)N[C@@H](Cc1c[nH]c2ccccc12)C(=O)N[C@H](C(=O)N[C@H](C(=O)N[C@@H](CC(N)=O)C(=O)NCC(N)=O)[C@@H](C)CC)[C@@H](C)O [Peptide 21] (Nonanoyl-[dS][dY][dW][dOrn][Orn]G[dOrn]WTING-NH2) | fold increase in MIC against P. aeruginosa, K. pneumoniae, and E. cloacae [1, 2]: 1–2 fold |
